{"source": "ChEMBL document CHEMBL2203217", "about": "“Prohormone-substrate peptide sequence recognition by peptidylglycine α-amidating monooxygenase and its reflection in increased glycolate inhibitor potency” (Bioorg Med Chem Lett, 2012)", "key": {"[1]": {"biological_target": "T1, Peptidyl-glycine alpha-amidating monooxygenase (Homo sapiens, UniProt P19021)", "T1 sequence (P19021 whole entry)": "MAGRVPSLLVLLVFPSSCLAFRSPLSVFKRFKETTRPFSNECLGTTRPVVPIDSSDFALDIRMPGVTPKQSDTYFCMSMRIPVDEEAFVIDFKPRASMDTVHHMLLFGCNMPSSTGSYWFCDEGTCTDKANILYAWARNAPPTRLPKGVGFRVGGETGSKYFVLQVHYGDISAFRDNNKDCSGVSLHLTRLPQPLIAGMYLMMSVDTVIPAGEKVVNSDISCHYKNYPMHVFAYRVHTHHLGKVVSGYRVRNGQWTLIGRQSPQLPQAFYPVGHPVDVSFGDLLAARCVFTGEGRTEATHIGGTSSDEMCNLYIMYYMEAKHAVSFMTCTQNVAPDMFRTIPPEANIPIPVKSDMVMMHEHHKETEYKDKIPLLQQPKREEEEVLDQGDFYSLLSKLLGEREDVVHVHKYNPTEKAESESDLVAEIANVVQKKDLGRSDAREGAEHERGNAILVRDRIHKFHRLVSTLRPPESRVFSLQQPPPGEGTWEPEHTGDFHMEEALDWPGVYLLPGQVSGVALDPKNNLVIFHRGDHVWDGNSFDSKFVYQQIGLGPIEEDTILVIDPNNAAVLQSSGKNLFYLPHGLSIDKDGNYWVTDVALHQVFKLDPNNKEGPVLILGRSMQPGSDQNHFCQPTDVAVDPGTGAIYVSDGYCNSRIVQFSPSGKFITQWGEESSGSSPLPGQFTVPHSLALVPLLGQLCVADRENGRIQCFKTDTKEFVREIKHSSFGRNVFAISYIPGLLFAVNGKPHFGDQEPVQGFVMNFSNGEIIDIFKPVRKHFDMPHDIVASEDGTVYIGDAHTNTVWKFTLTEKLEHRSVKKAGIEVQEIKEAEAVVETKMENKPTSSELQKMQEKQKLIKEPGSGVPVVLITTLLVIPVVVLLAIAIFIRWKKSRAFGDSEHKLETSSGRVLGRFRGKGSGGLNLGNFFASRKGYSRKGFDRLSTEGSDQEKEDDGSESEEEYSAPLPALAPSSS", "assay": "Competitive inhibition of PAM in human DMS53 cells using as(R)-Tyr-(S)-Val-Gly as substrate after 2 hrs by HPLC analysis", "type": "cell-based, DMS-53"}, "[2]": {"biological_target": "T1, Peptidyl-glycine alpha-amidating monooxygenase", "assay": "Competitive inhibition of secreted PAM in human DMS53 cell culture medium using as(R)-Tyr-(S)-Val-Gly as substrate after 2 hrs by HPLC analysis", "design": "species or system DMS-53"}}}
{"smiles": "C[C@H](NC(=O)CN)C(=O)N1CCC[C@H]1C(=O)OCC(=O)O", "values": [{"measurement": "IC50", "setting": "[1]", "result": 980, "unit": "µM"}, {"measurement": "IC50", "setting": "[2]", "result": 1100, "unit": "µM"}]}
